Assays:
[1] = target: T1, human nicotinic acetylcholine receptor subtype α4β2 (Homo sapiens, UniProt P17787+P43681); assay: FLIPR nAChR α4β2 positive allosteric modulator activity; type: cell-based; settings: HEK-293 cells stably expressing hα4β2; for Efficacy Response relative to Nicotine (%): maximal positively modulated response relative to maximal nicotine response (100 μM); for EC50: positive modulation of response to sub-maximal nicotine (EC20-30), peak values
T1 construct: expressed in transfected cells
Protocol: Characterization of hα4β2 Positive Allosteric Modulators Using FLIPR
The ability is determined relative to a maximal nicotine response (100 μM). The activity is determined as a fluorescence-based assay using a Fluorometric Imaging Plate Reader (FLIPR) as described below in more detail.
Full concentration/response curves are generated and EC50 values are calculated based on peak values. EC50 values (Effective Concentration) represent the concentration of the test substance, at which the nicotine-induced EC20-30 response is positively modulated such that the size of the response equals 50% of the maximal response. The maximal positively modulated response (efficacy) is determined relative to the reference (nicotine) response.

T1 sequence (P43681 29-627 limits assumed): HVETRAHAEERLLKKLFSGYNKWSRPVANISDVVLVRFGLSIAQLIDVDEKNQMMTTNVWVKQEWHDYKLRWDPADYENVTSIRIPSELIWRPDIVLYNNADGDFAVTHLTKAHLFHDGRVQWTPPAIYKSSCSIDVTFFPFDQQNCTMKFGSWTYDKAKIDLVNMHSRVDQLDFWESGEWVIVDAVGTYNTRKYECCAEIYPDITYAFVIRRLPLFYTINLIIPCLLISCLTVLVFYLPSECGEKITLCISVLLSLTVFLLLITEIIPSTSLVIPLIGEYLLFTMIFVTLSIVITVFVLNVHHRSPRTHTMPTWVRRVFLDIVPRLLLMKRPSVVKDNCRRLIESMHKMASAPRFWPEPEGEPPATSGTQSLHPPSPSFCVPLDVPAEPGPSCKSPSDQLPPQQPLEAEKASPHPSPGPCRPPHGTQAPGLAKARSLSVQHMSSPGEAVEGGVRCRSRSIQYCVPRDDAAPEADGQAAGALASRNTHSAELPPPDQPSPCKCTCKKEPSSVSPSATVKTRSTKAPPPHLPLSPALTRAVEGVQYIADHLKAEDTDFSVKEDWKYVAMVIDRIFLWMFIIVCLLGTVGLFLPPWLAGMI
T1 sequence (P17787 26-502): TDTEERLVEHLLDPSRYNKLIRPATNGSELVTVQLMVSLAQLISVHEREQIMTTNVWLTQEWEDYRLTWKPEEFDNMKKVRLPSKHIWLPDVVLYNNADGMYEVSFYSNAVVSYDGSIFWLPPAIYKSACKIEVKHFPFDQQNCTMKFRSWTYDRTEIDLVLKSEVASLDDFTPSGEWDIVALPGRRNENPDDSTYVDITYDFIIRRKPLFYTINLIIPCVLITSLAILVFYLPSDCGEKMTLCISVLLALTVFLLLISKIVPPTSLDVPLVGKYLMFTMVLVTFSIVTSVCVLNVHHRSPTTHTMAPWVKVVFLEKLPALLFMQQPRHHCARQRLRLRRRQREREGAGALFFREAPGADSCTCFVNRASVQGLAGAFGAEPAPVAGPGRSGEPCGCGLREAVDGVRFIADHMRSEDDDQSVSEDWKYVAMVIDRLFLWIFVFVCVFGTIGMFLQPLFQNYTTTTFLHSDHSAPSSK

Efficacy Response relative to Nicotine (%) [1]	EC50 [1]	melting point	Compound
133%	0.52 µM	–	N#Cc1cccc(-c2nnc(-c3cccnc3)o2)c1 [Compound 7.1, 3-(5-Pyridine-3-yl-[1,3,4]oxadiazol-2-yl)-benzonitrile]
–	–	165 to 168 °C	O=[N+]([O-])c1ccc(-c2nnc(-c3cccnc3)o2)o1 [Compound 7.2, 3-(5-{5-Nitro-furan-2-yl}-[1,3,4]oxadiazol-2-yl)-pyridine]
153%	0.98 µM	–	N#Cc1ccc(-c2nnc(-c3cccnc3)o2)s1 [Compound 7.6]
–	–	217 to 223 °C	N#Cc1cccc(-c2nnc(-c3cccc(C#N)c3)s2)c1 [Compound 8.2, 3-(5-{3-Cyano-phenyl}-[1,3,4]thiadiazol-2-yl)-benzonitrile]

Source: patent US20100029685A1 (NeuroSearch A/S, priority 2006, published 2010)
